# From US11154565B2, “Process for preparing a stable emulsion comprising one or more avermectins” (GALDERMA HOLDING SA, priority 2015, dated 2021)
# Assay: Chemical stability of ivermectin in the composition on storage
# Assay type: physicochemical
# Conditions: composition obtained according to the invention
substance,measurement,setting,value
ivermectin,chemical stability of ivermectin,stored for 6 months at 40° C.,chemically stable
same,chemical stability of ivermectin,stored for 12 months at room temperature,chemically stable
